Laboratory results as given in BindingDB's records for doi:10.1016/j.bmc.2019.115207 (Tokyo Institute of Innovative Research, 2020).

Target: Hypoxia-inducible factor 1-alpha (Homo sapiens, UniProt Q16665)
Assay: Inhibition of HIF1alpha transcriptional activity in human HeLa cells transfected with HRE-firefly luciferase and cytomegalovirus-promoter expressing Renilla luciferase incubated for 12 hrs under 1% O2 condition by dual luciferase reporter gene assay

Hypoxia-inducible factor 1-alpha, sequence (Q16665 whole entry): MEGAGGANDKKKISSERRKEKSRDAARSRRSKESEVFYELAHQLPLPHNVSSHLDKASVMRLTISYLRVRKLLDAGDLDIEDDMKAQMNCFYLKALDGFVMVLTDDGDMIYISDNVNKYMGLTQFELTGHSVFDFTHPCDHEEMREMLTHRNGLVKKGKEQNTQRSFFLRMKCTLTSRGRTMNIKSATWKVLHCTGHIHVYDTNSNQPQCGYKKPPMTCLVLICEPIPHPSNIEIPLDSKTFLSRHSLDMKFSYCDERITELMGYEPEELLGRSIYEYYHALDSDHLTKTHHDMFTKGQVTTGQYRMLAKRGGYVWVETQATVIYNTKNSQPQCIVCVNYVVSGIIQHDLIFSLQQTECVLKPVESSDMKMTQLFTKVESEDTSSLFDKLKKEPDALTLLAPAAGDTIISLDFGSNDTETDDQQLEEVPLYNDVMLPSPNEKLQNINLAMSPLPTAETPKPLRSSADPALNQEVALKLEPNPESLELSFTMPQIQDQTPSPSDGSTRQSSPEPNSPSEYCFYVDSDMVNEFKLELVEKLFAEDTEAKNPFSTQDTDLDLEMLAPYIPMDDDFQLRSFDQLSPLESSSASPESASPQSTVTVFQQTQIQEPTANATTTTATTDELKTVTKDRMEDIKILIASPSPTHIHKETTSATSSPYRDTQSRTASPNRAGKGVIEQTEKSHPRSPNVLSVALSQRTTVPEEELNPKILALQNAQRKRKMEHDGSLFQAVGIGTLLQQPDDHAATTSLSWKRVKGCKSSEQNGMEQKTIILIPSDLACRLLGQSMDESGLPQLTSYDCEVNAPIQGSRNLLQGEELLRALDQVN

SMILES | IC50 [µM]
Cc1nn(-c2ccccc2)c2c1-c1ccccc1C2=O | 4.8
COc1ccc(-n2ncc3c2C(=O)c2ccccc2-3)cc1 | 0.61
O=C1c2ncccc2-c2cnn(-c3ccccc3)c21 | 10
O=C1c2ccccc2-c2cn[nH]c21 | > 30
O=C1c2ccccc2-c2cnn(-c3ccccc3)c21 | 1.4
O=C1c2ccccc2-c2cnn(-c3ccc(C(F)(F)F)cc3)c21 | 23
Cn1ncc2c1C(=O)c1ccccc1-2 | 8.8
Cc1ccc(-n2ncc3c2C(=O)c2ccccc2-3)cc1 | 0.79
O=C1c2ccccc2-c2cnn(-c3ccc(O)cc3)c21 | 0.39
